Measurements as given in PMC6017976, “Enzyme Kinetics and Molecular Docking Studies on Cytochrome 2B6, 2C19, 2E1, and 3A4 Activities by Sauchinone” (Molecules : A Journal of Synthetic Chemistry and Natural …, 2018).

Legend:
CYP2C19 = molecular target: T1, CYP2C19 (Homo sapiens, UniProt P33261); assay: Reversible inhibition (RI) of CYP2C19 activity in HLMs (cocktail probe assay); type: in vitro ADME; details: S-mephenytoin hydroxylation, 100 μM S-mephenytoin, 30 min incubation
T1 construct: pooled human liver microsomes from a mixed pool of 50 donors; tissue BD Gentest Co. 452156; host or cells: human liver microsomes, pool of 50 donors

[1] = male, ICR, mouse, in vivo
Method: (§1) For analysis of sibutramine, a mobile phase was made, consisting of 10 mM ammonium acetate adjusted to pH 4 with acetic acid: acetonitrile (94:6, v/v) and was eluted at 0.2 mL/min. […] Other parameters of mass spectrometers were the same as those used for analysis of metabolites of CYP substrates.
(§2) Male ICR mice (5 weeks old, weight of 20–25 g) were purchased from the Charles River Company Korea (Orient, Seoul, Korea). […] They were provided free access to food and water. These mice were allowed to acclimate to these conditions for three days prior to inclusion in the experiments.
(§3) Surgical procedures for mice were conducted under tiletamine HCl and zolazepam HCl anesthesia by intramuscular injection. The carotid artery (for blood sampling) cannulation was carried out using catheters (BASi, West Lafayette, IN, USA). Drug administration and blood sampling were performed at 5 h after surgery [55]. […] Other procedures were the same as those used for the sibutramine pharmacokinetic study.
(§4) AUC was calculated using the trapezoidal rule method. Standard methods [56] were used to calculate pharmacokinetic parameters using non-compartmental analysis (WinNonlin 2.1; Pharmasight Corp., Mountain View, CA, USA). Cmax and Tmax were read reversibly from extrapolated data.

in vivo = details: male, ICR, mouse
Method: as §1, §2, §3, §4

T1 sequence (P33261 whole entry): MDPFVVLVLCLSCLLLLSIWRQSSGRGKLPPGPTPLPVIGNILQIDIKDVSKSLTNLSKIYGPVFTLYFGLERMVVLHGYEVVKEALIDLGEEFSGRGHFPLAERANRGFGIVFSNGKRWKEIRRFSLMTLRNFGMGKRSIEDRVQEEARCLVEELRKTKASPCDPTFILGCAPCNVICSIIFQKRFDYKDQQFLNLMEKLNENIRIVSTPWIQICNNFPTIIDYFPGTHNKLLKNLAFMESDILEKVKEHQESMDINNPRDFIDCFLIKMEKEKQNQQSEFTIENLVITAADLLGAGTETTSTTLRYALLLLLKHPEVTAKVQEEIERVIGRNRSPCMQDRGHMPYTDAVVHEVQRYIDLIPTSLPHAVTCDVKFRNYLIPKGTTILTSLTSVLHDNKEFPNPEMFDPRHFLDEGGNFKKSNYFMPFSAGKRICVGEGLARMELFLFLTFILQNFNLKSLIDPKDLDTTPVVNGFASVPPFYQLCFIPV

Row | IC50 (CYP2C19) | AUC greater with sauchinone than drug alone (by %) [1] | CL/F slower with sauchinone than drug alone (by %) [1] | Cmax higher with sauchinone than drug alone (by %) [1] | t1/2 smaller with sauchinone than drug alone (by %) [1] | CL/F (in vivo) | Tmax (in vivo) | half-life (in vivo) | CL/F (in vivo; po) | Tmax (in vivo; po) | half-life (in vivo; po) | SMILES
1 | 6.59 µM | – | – | – | – | – | – | – | – | – | – | COc1ccc2[nH]c([S+]([O-])Cc3ncc(C)c(OC)c3C)nc2c1 (centres unmarked) [omeprazole, reference compound]
2 | – | 31.0% | 24.7% | 17.3% | 19.1% | 3.81 ± 0.514 mL/min/kg | 0.25 h | 2.18 ± 0.112 h | 2.87 ± 0.225 mL/min/kg | 0.25 h | 1.77 ± 0.427 h | COC(=O)[C@H](c1ccccc1Cl)N1CCc2sccc2C1 [Clopidogrel, clopidogrel]
